Results on one molecule are retold here after patent EP3108883A1, “THERAPEUTIC USES OF NON-PEPTIDE INHIBITORS OF THE CALCINEURIN - NFAT SIGNALLING PATHWAY” (Fundació Institut de Recerca Biomèdica de Bellvitge, priority 2015, dated 2016).

The structures appear in SMILES notation.

This assay addresses CN (Homo sapiens, UniProt Q08209). In words: In vitro CN phosphatase assay with pNPP as substrate. The format is biochemical. As to conditions: ZnCl2 control at 50 µM. The method, then: CN activity towards the pNPP substrate was measured as described (McAvoy, et al., in Current Protocols in Molecular Biology. (John Wiley & Sons, Inc., 2001), vol. 92, chap. 18, pp. 18). The CN phosphatase assay kit (ENZO Life Sciences, Farmingdale, NY) was used to assess the dephosphorylation of phosphoRII peptide by CN (Mulero et al., 2009, supra.). Potential immunosuppressant CN inhibitors should compete with NFATc for binding, without blocking the general phosphatase activity of CN. As an initial screening test, the phosphatase activity of CN was analyzed using the small molecule p-nitrophenil phosphate (pNPP) as substrate (see Material and Methods). […] The ability of compounds 1-32 in inhibiting CN-NFATc signaling was evaluated in human HEK 293T cells using a luciferase gene reporter assay that includes the NFATc-dependent IL2 promoter (3[…]). After 24 hours of treatment, 50 μM of compounds 6, 9, 17, 19, 23, 25 and 29 inhibit more than 75% NFATc activity, while compounds 1, 2, 4, 8, 10, 14, and 24 inhibit 50-75% NFATc activity (Fig. 2B).

On to `[Cl-].[Cl-].[Zn+2]` [ZnCl2], for which the “CN phosphatase activity towards pNPP” value is recorded as “strongly inhibits enzymatic activity”.
